Holding throughout (type): cell-based, chicken
The test system of one assay is AvBD8. Put plainly: RT-qPCR of AvBD8 in HTC cells. As to conditions: 2 mM butyrate and at least one concentration of BIX01294, 24 h (FIG. 5). As for the experimental part:
(§1) Culture and stimulation of macrophages. Two different chicken macrophage cell lines, HTC (24) and HD11 (25), were kindly provided by Dr. Narayan C. Rath and Dr. Hyun Lillehoj of USDA-ARS and maintained in RPMI 1640 containing 10% heat-inactivated FBS, 100 U/ml penicillin, and 100 μg/ml streptomycin and subcultured every 3-4 days. After overnight seeding at 1.5×10^6 cells/well in 6-well cell culture plates, cells were treated with different concentrations of each compound for 24 h or with the indicated concentration of each compound for various lengths of time for dose-response and time-course experiments, respectively. […]
(§2) Total RNA extraction and gene expression analysis. […] Gene expression was performed using reverse transcription-quantitative PCR (RT-qPCR) as previously described (27-29). […] The cDNA was then diluted 10-fold with RNase-free water prior to real-time PCR using QuantiTect SYBR® Green PCR Kit (Qiagen, Valencia, CA) in 10-μl reactions using primers specific for HDP, barrier function, and inflammatory cytokine genes as described (27, 29, 30). […] The fold changes in gene expression in the cells treated with individual compounds or in combinations were calculated relative to the cells treated with an equal volume of RPMI 1640 or DMSO using the ΔΔCt method (31).

For another assay, the system named is AvBD14. Put plainly: RT-qPCR of AvBD14 in HTC cells. As to conditions: 2 mM butyrate and at least one concentration of BIX01294, 24 h (FIG. 5). The procedure: as §1, §2
For another assay, the system named is AvBD9 gene promoter. The experiment in a line: HTC/AvBD9-luc luciferase reporter assay. The procedure:
Culture and stimulation of a stable HTC/AvBD9-luc luciferase reporter cell line. A stable HTC/AvBD9-luc cell line was generated by cloning a 2.0-Kb AvBD9 gene promoter fragment into a lentiviral luciferase reporter vector, pGreenFire1-mCMV-Puro (System Biosciences, Palo Alto, CA) and then transfected into HTC cells as previously described (22). The stable cell line was maintained in RPMI 1640 containing 10% heat-inactivated FBS, 100 U/ml penicillin, 100 μg/mL streptomycin, and 0.5 μg/mL puromycin and subcultured every 3-4 days. To measure transcriptional activation of the AvBD9 gene promoter in response to different epigenetic compounds, cells were seeded at 4×10^4 cells/well in white 96-well tissue culture plates and stimulated in duplicate with different compounds individually or in combination for 24 h. An equal amount of a solvent was applied as a negative control. Luciferase activity was measured using STEADY-GLO® Luciferase Assay System (Promega, Madison, WI) on an L-Max II luminescence microplate reader (Molecular Devices, Sunnyvale, CA). Cell viabilities were assessed by adding alamarBlue Reagent (ThermoFisher, Waltham, MA) to cell culture 4 h before luciferase assay. Relative luciferase activity was determined for each well after normalization to the cell viability as previously described (22).

The structures appear in SMILES notation.

Consider `COc1cc2nc(N3CCCN(C)CC3)nc(NC3CCN(Cc4ccccc4)CC3)c2cc1OC` [BIX01294], for which the “AvBD8 induction, combination with butyrate” value in the assay on AvBD8 was “greater than 100 fold”. In addition, in the assay with AvBD14, the “AvBD14 induction, combination with butyrate” value is “greater than 100 fold”. In addition, the “activation of the AvBD9 gene promoter (relative luciferase activity)” value in the assay with AvBD9 gene promoter (compound alone, different concentrations, 24 h (FIG. 2, Panel A)) was “concentration-dependent activation”. Further, the “synergy in luciferase activity with butyrate” value with AvBD9 gene promoter (different concentrations in combination with 2 mM butyrate, 24 h (FIG. 3)) was “marked dose-dependent increase in the synergy”.

These data come from US20250144056A1, “ANTIMICROBIAL HOST DEFENSE PEPTIDE-INDUCING COMPOSITIONS AND METHODS OF PRODUCTION AND USE THEREOF” (Board of Regents for the Oklahoma Agricultural and …, priority 2022, published 2025).
